# Data as given in patent US20230146455A1, “TREATMENT OF INFLAMMATORY DISEASES WITH PEPTIDES AND PHARMACEUTICAL COMPOSITIONS” (Yuyu Pharma, Inc., priority 2020, published 2023).
# “And” between values parts separate entries of the source, which are not always exact repeats. Equal entries are not always repeated. Where a SMILES comes first, the peptide text is derived from it. [ ]: non-standard residue; d: D form. Hyp = O=C(O)[C@@H]1C[C@@H](O)CN1
# Test system: IL-8
# Test: Example 9 Luminex, LPS hPBMCs: IL-8
# Format: cell-based, human
# Method: Treatment Human PBMCs were pretreated with YY-101, YDE-011 and YDE-043 or reference compound; Xiidra® at various concentration (ranging from 1 nM to 100 uM) for 2 h before stimulation. An equal volume of 0.5% DMSO was used as a vehicle control. Then, the cells were treated with LPS at 5 ug/ml. The supernatants from treated cells were harvested at 24 h and placed in a 96 well for Luminex cytokine & chemokine profiling using a Luminex 200 multiplex assay (Luminex; R&D system, USA).
# The main study arm with triplicate wells per group in a 24-well plate: • 1. Blank • 2. PBMC: 0.5% DMSO • 3. PBMC+LPS (5 ug/ml) • 4. PBMC+YY-101 100 uM • 5. PBMC+YY-101 10 uM • 6. PBMC+YY-101 1 uM • 7. PBMC+YY-101 0.1 uM • 8. PBMC+YY-101 0.01 uM • 9. PBMC+LPS (5 ug/ml)+Xiidra®100 uM • 10. PBMC+LPS (5 ug/ml)+Xiidra® 10 uM • 11. PBMC+LPS (5 ug/ml)+Xiidra® 1 uM • 12. PBMC+LPS (5 ug/ml)+Xiidra®0.1 uM • 13. PBMC+LPS (5 ug/ml)+Xiidra®0.01 uM • 14. PBMC+LPS (5 ug/ml)+Xiidra®0.001 uM • 15. PBMC+LPS (5 ug/ml)+YY-101 100 uM • 16. PBMC+LPS (5 ug/ml)+YY-101 10 uM • 17. PBMC+LPS (5 ug/ml)+YY-101 1 uM • 18. PBMC+LPS (5 ug/ml)+YY-101 0.1 uM • 19. PBMC+LPS (5 ug/ml)+YY-101 0.01 uM • 20. PBMC+LPS (5 ug/ml)+YY-101 0.001 uM • 21. PBMC+LPS (5 ug/ml)+YDE-011 100 uM • 22. PBMC+LPS (5 ug/ml)+YDE-011 10 uM • 23. PBMC+LPS (5 ug/ml)+YDE-011 1 uM • 24. PBMC+LPS (5 ug/ml)+YDE-011 0.1 uM • 25. PBMC+LPS (5 ug/ml)+YDE-011 0.01 uM • 26. PBMC+LPS (5 ug/ml)+YDE-011 0.001 uM • 27. PBMC+LPS (5 ug/ml)+YDE-043 100 uM • 28. PBMC+LPS (5 ug/ml)+YDE-043 10 uM • 29. PBMC+LPS (5 ug/ml)+YDE-043 1 uM • 30. PBMC+LPS (5 ug/ml)+YDE-043 0.1 uM • 31. PBMC+LPS (5 ug/ml)+YDE-043 0.01 uM • 32. PBMC+LPS (5 ug/ml)+YDE-043 0.001 uM
# Multiplex assay was used to measure 30 cytokines and chemokines. The 1:2, 1:10 and 1:200 diluted cell supernatant and serial dilution of the standard were dispensed into a 96 well plate at 50 ul/well. Then, the pre-mixed cocktail of antibody-coated magnetic beads was dispensed at 50 ul/well and incubated at room temperature for 2 h in a horizontal orbital microplate shaker at 800±500 rpm. The beads were washed using a magnetic device to prevent loss. The biotin-antibody was dispensed in 50 ul of each well and incubated at room temperature for 1 h in a shaker at 800±500 rpm. After washing, streptavidin-PE was added at 50 ul/well and incubated at room temperature for 30 min in a shaker under the same conditions. Finally, after washing, wash buffer (100 ul/well) was added to the plate and incubated in a shaker for 2 min. The Luminex™ 200 setting were set according to the manufacturer's protocol. The data was calculated with a standard five-parameter logistic nonlinear regression analysis of the data (xPonent software 4.2, USA). The levels of cytokine/chemokine are normalized to the live cell counts (1×10^5 cells/mL) and presented as concentrations per mL (pg/mL or ng/mL).
# [1] = PBMC + LPS(5 ug/ml) + test article 0.001 uM, Mean
# [2] = PBMC + LPS(5 ug/ml) + test article 0.001 uM, single replicates (1st, 2nd, 3rd)
# [3] = PBMC + LPS(5 ug/ml) + test article 0.01 uM, Mean
# [4] = PBMC + LPS(5 ug/ml) + test article 0.01 uM, single replicates (1st, 2nd, 3rd)
# [5] = PBMC + LPS(5 ug/ml) + test article 0.1 uM, Mean
# [6] = PBMC + LPS(5 ug/ml) + test article 0.1 uM, single replicates (1st, 2nd, 3rd)
# [7] = PBMC + LPS(5 ug/ml) + test article 1 uM, Mean
# [8] = PBMC + LPS(5 ug/ml) + test article 1 uM, single replicates (1st, 2nd, 3rd)
# [9] = PBMC + LPS(5 ug/ml) + test article 10 uM, Mean
# [10] = PBMC + LPS(5 ug/ml) + test article 10 uM, single replicates (1st, 2nd, 3rd)
# [11] = PBMC + LPS(5 ug/ml) + test article 100 uM, Mean
# [12] = PBMC + LPS(5 ug/ml) + test article 100 uM, single replicates (1st, 2nd, 3rd)
# [13] = PBMC + test article 0.01 uM, no LPS, Mean
# [14] = PBMC + test article 0.01 uM, no LPS, single replicates (1st, 2nd)
# [15] = PBMC + test article 0.1 uM, no LPS, Mean
# [16] = PBMC + test article 0.1 uM, no LPS, single replicates (1st, 2nd)
# [17] = PBMC + test article 1 uM, no LPS, Mean
# [18] = PBMC + test article 1 uM, no LPS, single replicates (1st, 2nd)
# [19] = PBMC + test article 10 uM, no LPS, Mean
# [20] = PBMC + test article 10 uM, no LPS, single replicates (1st, 2nd)
# [21] = PBMC + test article 100 uM, no LPS, Mean
# [22] = PBMC + test article 100 uM, no LPS, single replicates (1st, 2nd)
compound,measurement,setting,value
CC(C)C[C@H](NC(=O)CNC(=O)[C@H](CC(C)C)NC(=O)[C@H](CCC(N)=O)NC(=O)CNC(=O)[C@@H]1C[C@@H](O)CN1)C(=O)N[C@@H](C)C(=O)NCC(=O)N1CCC[C@H]1C(=O)N[C@@H](CCCCN)C(=O)O [YDE-011] (H-[Hyp]GQLGLAGPK-OH),Concentration,[1],26175.1 pg/mL
same,conc/live cell,[1],4943.8 pg/10^5
same,Concentration,[2],25949.1 pg/mL and 25243.2 pg/mL and 27333.0 pg/mL
same,conc/live cell,[2],5766.5 pg/10^5 and 4352.3 pg/10^5 and 4712.6 pg/10^5
same,Concentration,[3],27857.4 pg/mL
same,conc/live cell,[3],4784.6 pg/10^5
same,Concentration,[4],29106.4 pg/mL and 27148.3 pg/mL and 27317.6 pg/mL
same,conc/live cell,[4],4694.6 pg/10^5 and 5323.2 pg/10^5 and 4336.1 pg/10^5
same,Concentration,[5],25867.3 pg/mL
same,conc/live cell,[5],4548.1 pg/10^5
same,Concentration,[6],25672.8 pg/mL and 26225.6 pg/mL and 25703.5 pg/mL
same,conc/live cell,[6],3889.8 pg/10^5 and 5245.1 pg/10^5 and 4509.4 pg/10^5
same,Concentration,[7],25627.6 pg/mL
same,conc/live cell,[7],5106.9 pg/10^5
same,Concentration,[8],26271.7 pg/mL and 26379.3 pg/mL and 24231.7 pg/mL
same,conc/live cell,[8],4776.7 pg/10^5 and 5495.7 pg/10^5 and 5048.3 pg/10^5
same,Concentration,[9],25105.4 pg/mL
same,conc/live cell,[9],4765.2 pg/10^5
same,Concentration,[10],25626.7 pg/mL and 25335.2 pg/mL and 24354.2 pg/mL
same,conc/live cell,[10],4745.7 pg/10^5 and 4368.1 pg/10^5 and 5181.8 pg/10^5
same,Concentration,[11],26038.5 pg/mL
same,conc/live cell,[11],4290.3 pg/10^5
same,Concentration,[12],27702.6 pg/mL and 26563.8 pg/mL and 23849.1 pg/mL
same,conc/live cell,[12],4541.4 pg/10^5 and 4354.7 pg/10^5 and 3974.8 pg/10^5
CC(C)C[C@H](NC(=O)[C@H](CCC(N)=O)NC(=O)CNC(=O)[C@@H]1C[C@@H](O)CN1)C(=O)NCC(=O)O [YDE-043] (H-[Hyp]GQLG-OH; N-terminus and C-terminus assumed),Concentration,[1],27612.8 pg/mL
same,conc/live cell,[1],5610.5 pg/10^5
same,Concentration,[2],25319.8 pg/mL and 28134.2 pg/mL and 29384.5 pg/mL
same,conc/live cell,[2],5754.5 pg/10^5 and 4689.0 pg/10^5 and 6387.9 pg/10^5
same,Concentration,[3],27805.6 pg/mL
same,conc/live cell,[3],5331.3 pg/10^5
same,Concentration,[4],28010.8 pg/mL and 27056.0 pg/mL and 28350.1 pg/mL
same,conc/live cell,[4],6224.6 pg/10^5 and 4099.4 pg/10^5 and 5670.0 pg/10^5
same,Concentration,[5],26729.6 pg/mL
same,conc/live cell,[5],4969.6 pg/10^5
same,Concentration,[6],27502.4 pg/mL and 24737.2 pg/mL and 27949.2 pg/mL
same,conc/live cell,[6],5500.5 pg/10^5 and 4417.4 pg/10^5 and 4990.9 pg/10^5
same,Concentration,[7],26441.2 pg/mL
same,conc/live cell,[7],4990.4 pg/10^5
same,Concentration,[8],27517.8 pg/mL and 23008.1 pg/mL and 28797.5 pg/mL
same,conc/live cell,[8],4744.4 pg/10^5 and 4793.4 pg/10^5 and 5433.5 pg/10^5
same,Concentration,[9],29354.3 pg/mL
same,conc/live cell,[9],5450.9 pg/10^5
same,Concentration,[10],28998.3 pg/mL and 34618.6 pg/mL and 24446.1 pg/mL
same,conc/live cell,[10],5576.6 pg/10^5 and 6410.8 pg/10^5 and 4365.4 pg/10^5
same,Concentration,[11],25505.9 pg/mL
same,conc/live cell,[11],4053.3 pg/10^5
same,Concentration,[12],26994.4 pg/mL and 24017.4 pg/mL
same,conc/live cell,[12],4353.9 pg/10^5 and 3752.7 pg/10^5
CC(C)C[C@H](NC(=O)CNC(=O)[C@H](CC(=O)O)NC(=O)[C@H](CCC(N)=O)NC(=O)CNC(=O)[C@@H]1C[C@@H](O)CN1)C(=O)N[C@@H](C)C(=O)NCC(=O)N1CCC[C@H]1C(=O)N[C@@H](CCCCN)C(=O)O [YY-101] (H-[Hyp]GQDGLAGPK-OH; N-terminus and C-terminus assumed),Concentration,[1],47261.8 pg/mL
same,conc/live cell,[1],7362.6 pg/10^5
same,Concentration,[2],45291.5 pg/mL and 44844.4 pg/mL and 51649.5 pg/mL
same,conc/live cell,[2],7945.9 pg/10^5 and 6316.1 pg/10^5 and 7825.7 pg/10^5
same,Concentration,[3],45595.7 pg/mL
same,conc/live cell,[3],7399.0 pg/10^5
same,Concentration,[4],45499.3 pg/mL and 44844.4 pg/mL and 46443.3 pg/mL
same,conc/live cell,[4],7109.3 pg/10^5 and 7474.1 pg/10^5 and 7613.7 pg/10^5
same,Concentration,[5],41918.3 pg/mL
same,conc/live cell,[5],7205.6 pg/10^5
same,Concentration,[6],41283.9 pg/mL and 42997.0 pg/mL and 41473.9 pg/mL
same,conc/live cell,[6],6658.7 pg/10^5 and 8268.7 pg/10^5 and 6689.3 pg/10^5
same,Concentration,[7],46108.9 pg/mL
same,conc/live cell,[7],7089.9 pg/10^5
same,Concentration,[8],45195.7 pg/mL and 45259.6 pg/mL and 47871.4 pg/mL
same,conc/live cell,[8],7173.9 pg/10^5 and 6374.6 pg/10^5 and 7721.2 pg/10^5
same,Concentration,[9],46679.5 pg/mL
same,conc/live cell,[9],7101.0 pg/10^5
same,Concentration,[10],46315.2 pg/mL and 50742.2 pg/mL and 42981.1 pg/mL
same,conc/live cell,[10],7719.2 pg/10^5 and 7928.5 pg/10^5 and 5655.4 pg/10^5
same,Concentration,[11],46500.3 pg/mL
same,conc/live cell,[11],8028.8 pg/10^5
same,Concentration,[12],48337.8 pg/mL and 46988.3 pg/mL and 44174.7 pg/mL
same,conc/live cell,[12],7672.7 pg/10^5 and 7578.8 pg/10^5 and 8834.9 pg/10^5
same,Concentration,[13],4859.1 pg/mL
same,conc/live cell,[13],989.4 pg/10^5
same,Concentration,[14],2863.8 pg/mL and 6854.4 pg/mL
same,conc/live cell,[14],550.7 pg/10^5 and 1428.0 pg/10^5
same,Concentration,[15],4413.2 pg/mL
same,conc/live cell,[15],835.0 pg/10^5
same,Concentration,[16],2701.4 pg/mL and 6125.1 pg/mL
same,conc/live cell,[16],614.0 pg/10^5 and 1056.0 pg/10^5
same,Concentration,[17],4580.5 pg/mL
same,conc/live cell,[17],832.8 pg/10^5
same,Concentration,[18],4461.8 pg/mL and 4699.1 pg/mL
same,conc/live cell,[18],811.2 pg/10^5 and 854.4 pg/10^5
same,Concentration,[19],21138.7 pg/mL
same,conc/live cell,[19],3322.0 pg/10^5
same,Concentration,[20],37311.2 pg/mL and 4966.2 pg/mL
same,conc/live cell,[20],5829.9 pg/10^5 and 814.1 pg/10^5
same,Concentration,[21],15311.8 pg/mL
same,conc/live cell,[21],2320.9 pg/10^5
same,Concentration,[22],19929.7 pg/mL and 10693.9 pg/mL
same,conc/live cell,[22],3114.0 pg/10^5 and 1527.7 pg/10^5
